One assay concerns the target T1, human P2X2/3 receptor (Homo sapiens, UniProt P56373+Q9UBL9).
T1 construct: expressed in transfected cells; host or cells: CHO-K1
T1 sequence (P56373 1-397): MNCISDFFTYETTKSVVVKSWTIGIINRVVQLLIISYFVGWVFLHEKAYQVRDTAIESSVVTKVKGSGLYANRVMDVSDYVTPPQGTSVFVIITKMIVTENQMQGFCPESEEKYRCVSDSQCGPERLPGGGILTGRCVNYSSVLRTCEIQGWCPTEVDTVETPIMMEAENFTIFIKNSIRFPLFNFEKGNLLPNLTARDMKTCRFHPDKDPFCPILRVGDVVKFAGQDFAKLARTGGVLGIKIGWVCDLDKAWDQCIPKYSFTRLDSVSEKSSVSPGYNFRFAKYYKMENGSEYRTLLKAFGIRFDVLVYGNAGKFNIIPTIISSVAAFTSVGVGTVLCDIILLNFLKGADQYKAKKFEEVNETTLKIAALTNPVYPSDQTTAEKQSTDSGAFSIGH
T1 sequence (Q9UBL9 1-471): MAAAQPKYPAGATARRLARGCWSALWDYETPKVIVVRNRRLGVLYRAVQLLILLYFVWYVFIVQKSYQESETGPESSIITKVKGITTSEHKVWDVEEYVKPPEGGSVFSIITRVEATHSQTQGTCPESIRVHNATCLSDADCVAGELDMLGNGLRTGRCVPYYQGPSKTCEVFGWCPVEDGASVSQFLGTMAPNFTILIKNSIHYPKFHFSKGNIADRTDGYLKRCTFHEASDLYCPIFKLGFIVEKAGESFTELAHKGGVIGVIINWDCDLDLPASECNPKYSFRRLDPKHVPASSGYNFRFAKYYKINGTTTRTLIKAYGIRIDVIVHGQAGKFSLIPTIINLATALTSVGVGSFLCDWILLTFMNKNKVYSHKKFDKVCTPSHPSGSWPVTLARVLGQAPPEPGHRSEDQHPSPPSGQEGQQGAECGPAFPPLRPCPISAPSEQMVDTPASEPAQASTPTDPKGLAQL
In words: Calcium fluorescence measurement: human P2X2/3 receptor activity inhibition (CHO-K1 cells, Fluo-8 NoWash, […]). It counts as cell-based. Conditions: for pIC50: CHO-K1 cells expressing human P2RX2/X3 channel, 10µM α,β-Met-ATP, read-out: h-P2X2/3 IC50; for Selectivity: ratio of IC50 of P2X2/3/ P2X3 receptors. The method, then: Determination of human P2X2/3 receptor activity inhibition
The assay for the human P2RX2/X3 has been evaluated by the screening instrumentation using the […] as reader and the FLUO8-NoWash dye as fluorescent readout for calcium detection.
CHO-K1 cells recombinantly expressing the human P2RX2/X3 channel are maintained in DMEM F-12 (1:1) mixture (LONZA cat. n°: BE04-687F/U1) supplemented with 5 mL of 100 mM Sodium Pyruvate (LONZA cat. n° BE13-115E), 25 mL of 7.5% Sodium Bicarbonate (LONZA cat. n° BE17-613E), 6.5 mL of 1M Hepes (LONZA cat. n° BE17-737E), 5 mL of 100X Penicillin/Streptomycin mixture (LONZA cat. n° DE17-602E) and 50 mL of Fetal Bovine Serum (Sigma cat. n° F7524), 5 µg/mL Puromycin dihydrochloride (Sigma cat. n° P9620) and 1 mg/ml G418 disulfate salt (Sigma cat. n° G8168).
Cells were seeded into black-walled clear bottom 384 Multiwell plates at a density of 10.000 cells/well in complete medium. After 24 h the culture medium was replaced with 20 µL/well of Fluo-8 NoWash calcium sensitive dye (AAT Bioquest cat. n° 36316) diluted in Tyrode's buffer (Standard Tyrode's buffer: in house solution, 130 mM NaCl, 5 mM KCl, 2 mM CaCl2, 5 mM NaHCO3, 1 mM MgCl2, 20 mM HEPES, pH 7.4).
The plates were incubated for 1 hours at 37°C and injected with 10 µL/well of test compounds at 3X concentration in Tyrode's buffer with the […]. After 5 minutes a second injection of 15 µL/well of 10µM α,β-Met-ATP in Tyrode's buffer (α,β-Met-ATP: from Tocris cat. n° 3209) was performed and the signal of the emitted fluorescence was recorded by […] (Molecular Devices).
The selectivity is expressed as the ratio of IC50 of P2X2/3/ P2X3 receptors. Table 8: Human P2X3 and h-P2X2/3 receptor antagonist activity for selected compounds of the invention.

The next assay has as its target T2, human P2X3 receptor (Homo sapiens, UniProt P56373).
T2 construct: expressed in transfected cells; host or cells: CHO-K1
T2 sequence (P56373 1-397): T1 sequence (P56373 1-397)
In words: Calcium luminescence measurement: human P2X3 receptor activity inhibition (CHO-K1 cells, photoprotein readout, FLEXSTATION). Type of assay: cell-based. As to conditions: CHO-K1 cells co-expressing human P2X3 and Ca2+ sensitive photoprotein; agonist α,β-Met-ATP; read-out: h-P2X3 IC50. The method, then: Determination of human P2X3 receptor activity inhibition
The assay for the human purinergic P2RX3 receptor has been adapted to the internal screening instrumentation using the FLEXSTATION as reader and a photoprotein as luminescent readout. The assay consists of CHO-K1 cells recombinantly co-expressing the human P2rx3 receptor and a Ca^2+ sensitive photoprotein. Cells are maintained in DMEM F-12 (1:1) mixture (LONZA cat. n° BE04-687F/U1) supplemented with 9 mL of 100 mM Sodium Pyruvate (LONZA cat. n° BE13-115E), 29 mL of 7.5% Sodium Bicarbonate (LONZA cat. n° BE17-613E), 5.5 mL of 1 M Hepes (LONZA cat. n° BE17-737E), 5 mL of 100X Penicillin/Streptomycin mixture (LONZA cat. n° DE17-602E) and 50 mL of Fetal Bovine Serum (Sigma cat. n° F7524), 1 mg/mL G418 disulfate salt (Sigma cat. n° G8168) and 5 µg/ml Puromycin dihydrochloride (Sigma cat. n° P9620). Standard propagation conditions consist of seeding in a P75 flask twice a week, recovering about 20×10^6 cells, corresponding to about 80% confluency. Cells were seeded into black-walled clear bottom 96 well plates at a density of 40000 cells/well in a complete medium. After 24 h the culture medium was replaced with 200 µL/well of coelenterazine in Tyrode's buffer (Standard Tyrode's buffer: in house solution, 130 mM NaCl, 5 mM KCl, 2 mM CaCl2, 5 mM NaHCO3, 1 mM MgCl2, 20 mM HEPES, pH 7.4). Coelenterazine was purchased from BIOSYNTH (cat. n° C-7001). 10 mM stock solution was prepared in DMSO and glutathione and stored at -20° C. The plates were incubated for 4 hours at 37°C, and injected with 10 µL/well of test compounds at 25X concentration in Tyrode's buffer. After 4 minutes a second injection of 50 µL/well of 5X α,β-Met-ATP in Tyrode's buffer (α,β-Met-ATP: from Tocris (cat. n° 3209), was dissolved at 100 mM in water and stored in aliquots at -20°C) was performed and the signal of the emitted luminescence was recorded by FLEXSTATION III (Molecular Devices). […]
The inhibition curves of the tested compounds at cloned P2X3 receptor were determined by nonlinear regression analysis using software Prism 5.0 (Graphpad, San Diego, CA). The IC50 values and pseudo-Hill slope coefficients were estimated by the program.

pIC50: −log10 of the molar value. Some results are limits rather than exact numbers.

For `CC(C)(C)c1nnc2c3ncc(N4CCOCC4)cc3n(Cc3ccc(Br)cc3)c(=O)n12` [Example 31, 6-[(4-Bromophenyl)methyl] -3-tert-butyl-8-(morpholin-4-yl)pyrido[2,3-e][1,2,4]triazolo[4,3-c]pyrimidin-5(6H)-one], the values for the pIC50 on human P2X2/3 receptor and at human P2X3 receptor were 5.09 and 8.14, respectively. For the same molecule, the Selectivity at human P2X2/3 receptor is above 1000.
With `COC(C)(C)c1nnc2c3ncc(N4CCOCC4)cc3n(Cc3ccc(Cl)cc3)c(=O)n12` [Example 32, 6-(4-Chlorobenzyl)-3-(2-methoxypropan-2-yl)-8-(morpholin-4-yl)pyrido[2,3-e][1,2,4]triazolo[4,3-c]pyrimidin-5(6H)-one], on human P2X2/3 receptor, the pIC50 is below 4.52 and the Selectivity is listed as above 1000. In addition, the pIC50 at human P2X3 receptor is 7.68.
With `COc1ccc(Cn2c(=O)n3c(C(C)(C)C)nnc3c3ncc(N4CCNCC4)cc32)cc1` [Example 35, 3-tert-Butyl-6-[(4-methoxyphenyl)methyl] -8-(piperazin-1-yl)pyrido[2,3-e][1,2,4]triazolo[4,3-c]pyrimidin-5(6H)-one], at human P2X2/3 receptor, the pIC50 is below 4.52 and the Selectivity is reported as above 90. Also, the pIC50 at human P2X3 receptor was 6.48.
Consider `COc1ccc(Cn2c(=O)n3c(C(C)(C)C)nnc3c3ncc(N4CCN(C(C)=O)CC4)cc32)cc1` [Example 36, 8-(4-Acetylpiperazin-1-yl)-3-tert-butyl-6-[(4-methoxyphenyl)methyl]pyrido[2,3-e][1,2,4]triazolo[4,3-c]pyrimidin-5(6H)-one], for which, on human P2X2/3 receptor, the pIC50 is below 4.52 and the Selectivity is listed as above 119. Also, the pIC50 at human P2X3 receptor is 6.87.
In the case of `COc1ccc(Cn2c(=O)n3c(C(C)(C)C)nnc3c3ncc(N4CCCCC4)cc32)cc1` [Example 38, 3-tert-Butyl-6-[(4-methoxyphenyl)methyl]-8-(piperidin-1-yl)pyrido[2,3-e][1,2,4]triazolo[4,3-c]pyrimidin-5(6H)-one], the pIC50 is 4.70 at human P2X2/3 receptor and 7.30 on human P2X3 receptor. Also, the Selectivity at human P2X2/3 receptor is listed as above 392.
For the molecule `CC(C)(C)c1nnc2c3ncc(N4CC[C@@H](O)C4)cc3n(Cc3ccc(Cl)cc3)c(=O)n12` [Example 43, 3-tert-Butyl-6-[(4-chlorophenyl)methyl]-8-[(3R)-3-hydroxypyrrolidin-1-yl]pyrido[2,3-e][1,2,4]triazolo[4,3-c]pyrimidin-5(6H)-one], on human P2X2/3 receptor, the pIC50 was below 4.52 and the Selectivity is listed as above 444. In addition, the pIC50 on human P2X3 receptor is 7.17.
On to `COC(C)(C)c1nnc2c3nnc(N4CCOCC4)cc3n(Cc3ccc(Cl)cc3)c(=O)n12` [Example 48, 6-[(4-Chlorophenyl)methyl]-3-(2-methoxypropan-2-yl)-8-(morpholin-4-yl)[1,2,4]triazolo[4',3': 1,6]pyrimido[5,4-c]pyridazin-5(6H)-one], for which, on human P2X2/3 receptor, the pIC50 was below 4.52 and the Selectivity is above 1000. The pIC50 on human P2X3 receptor was 7.60.
On to `CC(C)(C)Cc1nnc2c3nnc(N4CCOCC4)cc3n(Cc3ccc(Cl)cc3)c(=O)n12` [Example 49, 6-[(4-Chlorophenyl)methyl]-3-(2,2-dimethylpropyl)-8-(morpholin-4-yl)[1,2,4]triazolo[4',3':1,6]pyrimido[5,4-c]pyridazin-5(6H)-one], for which the results for the pIC50 at human P2X2/3 receptor and on human P2X3 receptor were below 4.52 and 7.71, respectively. Also, at human P2X2/3 receptor, the Selectivity is above 1500.
Regarding `CN(C)c1nnc2c3nnc(N4CCOCC4)cc3n(Cc3ccc(Cl)cc3)c(=O)n12` [Example 50, 6-[(4-Chlorophenyl)methyl] -3 - (dimethylamino)-8-(morpholin-4-yl)[1,2,4]triazolo[4',3': 1,6]pyrimido[5,4-c]pyridazin-5(6H)-one], at human P2X2/3 receptor, the pIC50 was below 4.52 and the Selectivity is given as above 304. Moreover, the pIC50 on human P2X3 receptor was 7.01.
Consider `CC(C)(C)c1nnc2c3nnc(N4CCC(O)CC4)cc3n(Cc3ccc(Cl)cc3)c(=O)n12` [Example 55, 3-tert-Butyl-6-[(4-chlorophenyl)methyl]-8-(4-hydroxypiperidin-1-yl)[1,2,4]triazolo[4',3': 1,6]pyrimido[5,4-c]pyridazin-5(6H)-one], for which, on human P2X2/3 receptor, the pIC50 was below 4.52 and the Selectivity is recorded as above 1200. Besides, the pIC50 at human P2X3 receptor is 7.60.

The values are drawn from patent EP4389746A2, “P2X3 RECEPTOR ANTAGONISTS” (Recordati Industria Chimica E Farmaceutica SPA, priority 2022, dated 2024).
